Test results published in PubChem BioAssay AID1963825 (Molecular Pharmacology Branch, DTP, NCI, 2024).
“And” between values parts separate entries of the source, which are not always exact repeats. Equal entries are not always repeated.

test: Anticancer human tumor 997537-175-T-J1-PDC patient-derived colon adenocarcinoma cell line growth inhibition [POLQ]; details: 997537-175-T-J1-PDC complex spheroid viability, combination with POLQ inhibitors; compound 0.0316 µM; stronger effect = lower value
Procedure, shortened: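 Patient-derived tumour cells were co-cultured with HUVEC and mesenchymal stem cells as multicellular spheroids at 37 °C. They were treated with POLQ inhibitors (novobiocin, ART-558, RP6685) alone or combined with other agents. Top concentrations were at or near clinical Cmax (otherwise 10 microM; SN-38 at 1 microM), decreasing in half-log steps.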
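Note: luminescence signal used as a surrogate for viable cells; spheroids exposed to drugs for seven days before readout.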

Row | SMILES | viability, T/C
1 | COc1cccc2c1C(=O)c1c(O)c3c(c(O)c1C2=O)CC(O)(C(=O)CO)CC3OC1CC(N)C(O)C(C)O1 (configuration not stated) | 91.6% and 101% and 113%
2 | CCc1cc2c(N3CCc4c(cc(Cn5ccnc5)cc4-c4cn(C)nc4C(F)(F)F)C3=O)ccnc2c(OC)n1 | 95.3% and 92.8% and 103%
3 | CC1COCCN1c1cc(C2(S(C)(=N)=O)CC2)nc(-c2ccnc3[nH]ccc23)n1 (configuration not stated) | 92.8% and 97.8% and 110%
4 | CC(C)n1c(=O)n(C)c2cnc3cc(F)c(-c4ccc(OCCCN5CCCCC5)nc4)cc3c21 | 90.1% and 93% and 37.9%

same assay, conditions: 997537-175-T-J1-PDC complex spheroid viability, combination with POLQ inhibitors; compound 0.1 µM; stronger effect = lower value

Row | SMILES | viability, T/C
5 | COc1cccc2c1C(=O)c1c(O)c3c(c(O)c1C2=O)CC(O)(C(=O)CO)CC3OC1CC(N)C(O)C(C)O1 (configuration not stated) | 81.9% and 97% and 103%
6 | CCc1cc2c(N3CCc4c(cc(Cn5ccnc5)cc4-c4cn(C)nc4C(F)(F)F)C3=O)ccnc2c(OC)n1 | 79.7% and 104% and 98.2%
7 | CC1COCCN1c1cc(C2(S(C)(=N)=O)CC2)nc(-c2ccnc3[nH]ccc23)n1 (configuration not stated) | 99.5% and 101% and 102%
8 | CC(C)n1c(=O)n(C)c2cnc3cc(F)c(-c4ccc(OCCCN5CCCCC5)nc4)cc3c21 | 103% and 96% and 38.9%

same assay, conditions: 997537-175-T-J1-PDC complex spheroid viability, combination with POLQ inhibitors; compound 0.316 µM; stronger effect = lower value

Row | SMILES | viability, T/C
9 | COc1cccc2c1C(=O)c1c(O)c3c(c(O)c1C2=O)CC(O)(C(=O)CO)CC3OC1CC(N)C(O)C(C)O1 (configuration not stated) | 87.3% and 68.5% and 110%
10 | CCc1cc2c(N3CCc4c(cc(Cn5ccnc5)cc4-c4cn(C)nc4C(F)(F)F)C3=O)ccnc2c(OC)n1 | 98.5% and 76.2% and 96.9%
11 | CC1COCCN1c1cc(C2(S(C)(=N)=O)CC2)nc(-c2ccnc3[nH]ccc23)n1 (configuration not stated) | 101% and 84.7% and 82.3%
12 | CC(C)n1c(=O)n(C)c2cnc3cc(F)c(-c4ccc(OCCCN5CCCCC5)nc4)cc3c21 | 100% and 83.5% and 34.2%

same assay, conditions: 997537-175-T-J1-PDC complex spheroid viability, combination with POLQ inhibitors; compound 1 µM; stronger effect = lower value

Row | SMILES | viability, T/C
13 | COc1cccc2c1C(=O)c1c(O)c3c(c(O)c1C2=O)CC(O)(C(=O)CO)CC3OC1CC(N)C(O)C(C)O1 (configuration not stated) | 93.9% and 90% and 81.8%
14 | CCc1cc2c(N3CCc4c(cc(Cn5ccnc5)cc4-c4cn(C)nc4C(F)(F)F)C3=O)ccnc2c(OC)n1 | 84.6% and 90.4% and 91.4%
15 | CC1COCCN1c1cc(C2(S(C)(=N)=O)CC2)nc(-c2ccnc3[nH]ccc23)n1 (configuration not stated) | 91.7% and 86.5% and 92.7%
16 | CC(C)n1c(=O)n(C)c2cnc3cc(F)c(-c4ccc(OCCCN5CCCCC5)nc4)cc3c21 | 97.9% and 102% and 32.9%

same assay, conditions: 997537-175-T-J1-PDC complex spheroid viability, combination with POLQ inhibitors; compound 3.16 µM; stronger effect = lower value

Row | SMILES | viability, T/C
17 | COc1cccc2c1C(=O)c1c(O)c3c(c(O)c1C2=O)CC(O)(C(=O)CO)CC3OC1CC(N)C(O)C(C)O1 (configuration not stated) | 57.7% and 37.8% and 27.6%
18 | CCc1cc2c(N3CCc4c(cc(Cn5ccnc5)cc4-c4cn(C)nc4C(F)(F)F)C3=O)ccnc2c(OC)n1 | 76.5% and 68.3% and 72.7%
19 | CC1COCCN1c1cc(C2(S(C)(=N)=O)CC2)nc(-c2ccnc3[nH]ccc23)n1 (configuration not stated) | 66% and 59.8% and 74.8%
20 | CC(C)n1c(=O)n(C)c2cnc3cc(F)c(-c4ccc(OCCCN5CCCCC5)nc4)cc3c21 | 85.7% and 92.1% and 37.8%

same assay, conditions: 997537-175-T-J1-PDC complex spheroid viability, combination with POLQ inhibitors; compound 10 µM; stronger effect = lower value

Row | SMILES | viability, T/C
21 | COc1cccc2c1C(=O)c1c(O)c3c(c(O)c1C2=O)CC(O)(C(=O)CO)CC3OC1CC(N)C(O)C(C)O1 (configuration not stated) | 8.92% and 9.36% and 7.86%
22 | CCc1cc2c(N3CCc4c(cc(Cn5ccnc5)cc4-c4cn(C)nc4C(F)(F)F)C3=O)ccnc2c(OC)n1 | 57.5% and 79.9% and 53.8%
23 | CC1COCCN1c1cc(C2(S(C)(=N)=O)CC2)nc(-c2ccnc3[nH]ccc23)n1 (configuration not stated) | 49.9% and 58.9% and 53.6%
24 | CC(C)n1c(=O)n(C)c2cnc3cc(F)c(-c4ccc(OCCCN5CCCCC5)nc4)cc3c21 | 73.3% and 87.2% and 43.2%

same assay, conditions: 997537-175-T-J1-PDC complex spheroid viability, combination with POLQ inhibitors; curve of compound

Row | SMILES | IC50
25 | COc1cccc2c1C(=O)c1c(O)c3c(c(O)c1C2=O)CC(O)(C(=O)CO)CC3OC1CC(N)C(O)C(C)O1 (configuration not stated) | 3.79 µM and 2.41 µM and 1.97 µM
26 | CCc1cc2c(N3CCc4c(cc(Cn5ccnc5)cc4-c4cn(C)nc4C(F)(F)F)C3=O)ccnc2c(OC)n1 | > 10 µM
27 | CC1COCCN1c1cc(C2(S(C)(=N)=O)CC2)nc(-c2ccnc3[nH]ccc23)n1 (configuration not stated) | 9.98 µM and > 10 µM
